Reference: patent US5760036A, “Aminediol protease inhibitors” (E. R. Squibb & Sons, Inc., priority 1995, dated 1998)
pIC50: −log10 of the molar value. Structures can show the parent of a compound that is named as a salt. Where two headings read alike, the source gives them in different places.

Key:
[1] = target: T1, HIV protease (Human immunodeficiency virus type 1 group M subtype B, UniProt P04585); test: HIV Protease Assay; assay type: biochemical
T1 construct: and purified protease
In short: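 At a single final concentration of 10 μM (4% DMSO), inhibitors were added to a 30-minute, 37° C reaction of purified enzyme with 450 μM H2N-Val-Ser-Gln-Asn-(β-naphthyl-alanine)-Pro-Val-Ile-OH at pH 5.5 (sodium acetate, BSA). Hydrolysis was quantified by reverse-phase HPLC with 220 nm detection after acid quench.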

[2] = tested on: RF strain of HIV (CEM-SS cells); test: Cell Culture Anti-HIV Activity (cell viability, formazan); assay type: cell-based; details: Human immunodeficiency virus 1, CEM-SS, 144 h, CEM-SS cells, RF strain of HIV, multiplicity of infection 0.04, 6 days at 37° C., 450 nm; read-out: HIV (CEM Cells) IC50
In short: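 Half-log compound dilutions added to CEM-SS cells (5000/well) carrying HIV RF (MOI 0.04), 6 days, 37° C. Cell protection measured as formazan from tetrazolium, A450. IC50: drug level restoring infected-cell formazan to 50% of the uninfected untreated control.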

[3] = pH 5.5, 10 μM inhibitor, 4% DMSO, 450 μM substrate, pH 5.5, 30 minutes at 37° C., RP-HPLC, read-out: HIV Protease % Inhibition at 10 μM
[4] = pH 5.5, read-out: HIV Protease % Inhibition at 10 μM

| Compound | inhibition at 10 µM [1, 3] | inhibition at 10 µM [1, 4] | HIV Protease % Inhibition at 10 μM ([1]; 10 μM inhibitor, 4% DMSO, 450 μM substrate, pH 5.5, 30 minutes at 37° C., RP-HPLC) | pIC50 [2] |
| --- | --- | --- | --- | --- |
| CCC(C)(C)OC(=O)N[C@@H](Cc1ccccc1)[C@H](O)CNC[C@@H](O)[C@H](Cc1ccccc1)NC(=O)OC(C)(C)CC [Compound 138, [R-(R*,S*)]-[Iminobis[2-hydroxy-1-(phenylmethyl)-3,1-propandiyl]]biscarbamic acid, bis(1,1-dimethylpropyl)ester] | 98% |  |  | < 6.10 |
| COC(=O)N[C@H](C(=O)N[C@@H](Cc1ccccc1)[C@H](O)CNC[C@@H](O)[C@H](Cc1ccccc1)NC(=O)OC(C)(C)C)C(C)C (relative stereo) [Compound 247, [1R*,2S*,3R*)]-N-[3-[[3-[[(1,1-Dimethylethoxy)carbonyl]amino]-2-hydroxy-4-phenylbutyl]amino]-2-hydroxy-1-(phenylmethyl)propyl]-N^2-(methoxycarbonyl)-L-valinamide] | 99% |  |  | 7.00 |
| COC(=O)N[C@H](C(=O)N[C@@H](Cc1ccc(OCCc2ccccn2)cc1)[C@H](O)CNC[C@@H](O)[C@H](Cc1ccccc1)NC(=O)OC(C)(C)C)C(C)(C)C (relative stereo) [Compound 297, [1R*,2S*(2S*,3R*)]-N-[3-[[3-[[(1,1-Dimethylethoxy)carbonyl]amino]-2-hydroxy-4-phenylbutyl]amino]-2-hydroxy-1-[[4-[r2-(2-pyridinyl)ethoxy]phenyl]methyl]propyl]-N^2-(2-methoxycarbonyl)-3-methyl-L-valinamide] | 100% |  |  | 7.30 |
| CC(C)(C)OC(=O)N[C@@H](Cc1ccccc1)[C@H](O)CNC[C@H](O)[C@H](Cc1ccccc1)NC(=O)OC(C)(C)C [Compound 5, [1S-[1R*,2S*(2R*,3R*)]]-[3-[[3-[[(1,1-Dimethylethoxy)carbonyl]amino]-2-hydroxy-4-phenylbutyl]amino]-2-hydroxy-1-(phenylmethyl)propyl]carbamic acid, 1,1-dimethylethyl ester] | 41% |  |  | 5.55 |
| CC(C)C[C@H](N)C(=O)N[C@H](C(=O)N[C@@H](Cc1ccccc1)[C@H](O)CNC[C@@H](O)[C@H](Cc1ccccc1)NC(=O)OC(C)(C)C)C(C)C [Compound 98, [S-[1R*,2S*(2S*,3R*)]-N-[3-[[3-[[(1,1-Dimethylethoxy)carbonyl]amino]-2-hydroxy-4-phenylbutyl]amino]-2-hydroxy-1(phenylmethyl)propyl]-N^2-(L-leucyl)-L-valinamide, fumarate salt] | 100% |  |  | 5.89 |
| C[C@H](O)C(C)(C)OC(=O)N[C@@H](Cc1ccccc1)[C@H](O)CNC[C@@H](O)[C@H](Cc1ccccc1)NC(=O)OC(C)(C)C [Compound 232, [1S-(1R*,2S*),(R*)]-[Iminobis[2-hydroxy-1-(phenylmethyl)-3,1-propanediyl]]biscarbamic acid, 1,1-dimethylethyl 2-hydroxy-1,1-dimethylpropyl ester] | 99% |  |  | 7.30 |
| CC(C)(C)OC(=O)N[C@@H](Cc1ccccc1)[C@H](O)CNC[C@@H](O)[C@H](Cc1ccccc1)NC(=O)OC(C)(C)c1ccccc1 [Compound 156, [1S-(1R*,2S*)]-2-hydroxy-1-(phenylmethyl)-3,1-propanediyl)biscarbamic acid, 1,1-dimethylethyl-1-methyl-1-phenylethyl ester] | 85% |  |  | < 5.22 |
| CC(C)(C)OC(=O)N[C@@H](Cc1ccccc1)[C@H](O)CNC[C@@H](O)[C@H](Cc1cccc(O)c1)NC(=O)OC(C)(C)C [Compound 29, [1S-[1R*,2S*(2S*,3R*)]]-[3-[[3-[[(1,1-Dimethylethoxy)-carbonyl]amino]-2-hydroxy-4-(3-hydroxyphenyl)butyl]-amino]-2-hydroxy-1-(phenylmethyl)propyl]carbamic acid, 1,1-dimethylethyl ester] |  | 100% |  | 7.00 |

More lines, main results first:

| inhibition at 10 µM [1, 3] | inhibition at 10 µM [1, 4] | HIV Protease % Inhibition at 10 μM ([1]; 10 μM inhibitor, 4% DMSO, 450 μM substrate, pH 5.5, 30 minutes at 37° C., RP-HPLC) | Compound | pIC50 [2] |
| --- | --- | --- | --- | --- |
| 98% |  |  | CC(C)[C@H](NC(=O)OCc1nc2ccccc2c(=O)[nH]1)C(=O)N[C@@H](Cc1ccccc1)[C@H](O)CNC[C@@H](O)[C@H](Cc1ccccc1)NC(=O)OC(C)(C)C (relative stereo) [Compound 222, [1R*,2S*(2S*,3R*)]-N^2-[[(3,4-Dyhydro-4-oxo-2-quinazolinyl)methoxy]carbonyl]-N-[3-[[3-[[(1,1-dimethylethoxy)carbonyl]amino]-2-hydroxy-4-phenylbutyl]amino]-2-hydroxy-1-(phenylmethyl)propyl]-L-valinamide] | 6.42 |
|  | 99% |  | CC(C)(O)COc1ccc(C[C@H](NC(=O)OC(C)(C)C)[C@H](O)CNC[C@@H](O)[C@H](Cc2ccccc2)NC(=O)OC(C)(C)C)cc1 [Compound 358, [1S-[1R*,2S*(2S*,3R*)]]-[3-[[3-[[(1,1-Dimethylethoxy)carbonyl]amino]-2-hydroxy-4-[4-(2-hydroxy-2-methylpropoxy)phenyl]butyl]amino]-2-hydroxy-1-(phenylmethyl)propyl]carbamic acid, 1,1-dimethylethyl ester] | 7.00 |
|  |  | 99% | CC(C)(C)OC(=O)N[C@@H](Cc1ccccc1)[C@H](O)CNC[C@@H](O)[C@H](Cc1ccccc1)NC(=O)C1NC(=O)OC1(C)C (single isomer, unassigned; isomer b) [Compound 240, [1S-[1R*,2S*(2S*,3R*)]]-[3-[[3-[[(5,5-Dimethyl-2-oxo-4-oxazolidinyl)carbonyl]amino]-2-hydroxy-4-phenylbutyl]amino]-2-hydroxy-1-(phenylmethyl)propyl]carbamic acid, 1,1-dimethylethyl ester, isomer B] | 5.70 |
| 88% |  |  | CC(C)(C)OC(=O)N[C@@H](Cc1ccccc1)[C@H](O)CNC[C@@H](O)[C@H](Cc1ccccc1)NC(=O)OCc1cccnc1 [Compound 256, [R-(R*,S*)]-[Iminobis[2-hydroxy-1-(phenylmethyl)-3,1-propanediyl)]biscarbamic acid. 1,1-dimethylethyl-3-pyridinylmethyl ester] | 5.82 |
| 99% |  |  | CC(C)(C)OC(=O)N[C@@H](Cc1ccccc1)[C@H](O)CNC[C@@H](O)[C@H](Cc1ccccc1)NC(=O)O[C@H]1CCOC1 [Compound 331, [1S-(1R*,2S*,3R*)]-[Iminobis[2-hydroxy-1-(phenylmethyl)-3,1-propanediyl]]bis[carbamic acid], 3-tetrahydrofuranyl 1,1-dimethylethyl ester] | 7.22 |
| 100% |  |  | CC(C)[C@H](NC(=O)OCc1ccc2ccccc2n1)C(=O)N[C@@H](Cc1ccccc1)[C@H](O)CNC[C@@H](O)[C@H](Cc1ccccc1)NC(=O)OC(C)(C)C (relative stereo) [Compound 281, [1R*,2S*(2S*,3R*)]]-N-[3-[[1,1-Dimethylethoxy)carbonyl]amino]-2-hydroxy-4-phenylbutyl]amino]-2-hydroxy-1-(phenylmethyl)-proyl]-N^2-[(2-quinolinylmethoxy)carbonyl]-L-valinamide] | 6.54 |
| 100% |  |  | CC(C)(C)OC(=O)N[C@@H](Cc1ccccc1)[C@H](O)CNC[C@@H](O)[C@H](Cc1ccccc1)NC(=O)[C@@H](NC=O)C(C)(C)C [Compound 234, [1S-[1R*,2S*(2S*,3R*),(R*)]]-[3-[[3-[[3,3-Dimethyl-2-(formylamino)-1-oxobutyl]amino]-2-hydroxy-4-phenylbutyl]amino]-2-hydroxy-1-(phenylmethyl)propyl]carbamic acid, 1,1-dimethylethyl ester] | 7.10 |
